Laboratory results reported in US20130096055A1, “LONG-ACTING Y2 RECEPTOR AGONISTS” (Novo Nordisk A/S, priority 2009, published 2013).
Starred links: 1 amine or outer side, 2 acyl side, 3 side chain; linkers in the order of their positions; H or OH if unused. Groups on a side chain read outwards from the residue. No end group written: not given here. *: point of attachment. C18 diacid = O=C(O)CCCCCCCCCCCCCCCCC(=O)*; γGlu = O=C(O)[C@H](CCC(=O)[*:2])N[*:1]; AEEA = NCCOCCOCC(=O)O

T1: human Y5 receptor (Homo sapiens, UniProt Q15761)
T1 construct: expressed in transfected cells
T1 sequence (Q15761 1-445): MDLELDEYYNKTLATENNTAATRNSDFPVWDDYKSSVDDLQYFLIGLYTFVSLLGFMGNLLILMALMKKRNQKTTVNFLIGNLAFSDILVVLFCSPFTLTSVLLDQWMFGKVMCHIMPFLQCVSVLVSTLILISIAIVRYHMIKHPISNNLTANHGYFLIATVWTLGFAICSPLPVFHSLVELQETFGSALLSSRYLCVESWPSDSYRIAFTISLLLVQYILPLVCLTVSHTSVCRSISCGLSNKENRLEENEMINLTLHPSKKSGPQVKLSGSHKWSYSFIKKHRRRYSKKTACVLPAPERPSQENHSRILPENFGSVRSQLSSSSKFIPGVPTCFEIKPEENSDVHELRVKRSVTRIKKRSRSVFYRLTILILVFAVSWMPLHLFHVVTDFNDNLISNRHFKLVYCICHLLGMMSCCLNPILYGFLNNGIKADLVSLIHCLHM

T2: Y1 receptor (Homo sapiens, UniProt P25929)
T2 construct: expressed in transfected cells; host or cells: ACTOne HEK-293 cells
T2 sequence (P25929 1-384): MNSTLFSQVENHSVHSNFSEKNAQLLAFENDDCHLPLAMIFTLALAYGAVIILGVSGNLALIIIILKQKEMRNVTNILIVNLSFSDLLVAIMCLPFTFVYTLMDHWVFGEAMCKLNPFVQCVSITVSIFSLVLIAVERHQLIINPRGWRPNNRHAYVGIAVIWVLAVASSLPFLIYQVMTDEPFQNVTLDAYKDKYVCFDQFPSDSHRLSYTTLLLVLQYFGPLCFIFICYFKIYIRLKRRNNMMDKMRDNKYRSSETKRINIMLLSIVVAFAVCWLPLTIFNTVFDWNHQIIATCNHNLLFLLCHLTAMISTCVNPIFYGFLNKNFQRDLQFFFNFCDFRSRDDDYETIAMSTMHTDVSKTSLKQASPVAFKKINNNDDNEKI

T3: Y2 receptor (UniProt P49146 1-381, limits assumed)
T3 sequence (looked up): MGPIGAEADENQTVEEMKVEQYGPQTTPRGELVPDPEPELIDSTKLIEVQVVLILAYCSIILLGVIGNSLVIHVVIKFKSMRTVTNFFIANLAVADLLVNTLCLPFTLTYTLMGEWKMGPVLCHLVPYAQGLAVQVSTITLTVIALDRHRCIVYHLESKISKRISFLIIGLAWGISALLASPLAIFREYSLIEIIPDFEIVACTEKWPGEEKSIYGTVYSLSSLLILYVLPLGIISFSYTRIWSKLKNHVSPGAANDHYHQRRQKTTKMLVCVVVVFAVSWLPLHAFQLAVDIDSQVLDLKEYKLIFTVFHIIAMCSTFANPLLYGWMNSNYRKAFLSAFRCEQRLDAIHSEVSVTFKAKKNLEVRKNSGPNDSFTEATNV

T4: human Y5 receptor (human, UniProt Q15761 1-445)
T4 sequence (looked up): T1 sequence (Q15761 1-445)

T5: Y1 receptor (UniProt P25929 1-384, limits assumed)
T5 sequence (looked up): T2 sequence (P25929 1-384)


Tests used:
human Y5 receptor [1] = target: T1, human Y5 receptor; test: Assay (III) Y5 receptor IPOne potency assay; type: cell-based
Y1 receptor [2] = target: T2, Y1 receptor; test: Assay (II) Y1 receptor ACTOne potency assay; type: cell-based
From the text: ACTOne™ is an easily scaleable cAMP biosensor HTS platform for measurement of Gs and Gi coupled 7™ receptor signalling from BD Biosciences (San Jose, Calif.). The cells express a biosensor developed around a modified rat olfactory cyclic nucleotide gated (CNG) calcium channel—a fairly non-discriminatory ion channel that responds to cAMP and cGMP. The CNG has been engineered to be cAMP selective and thus function as a cAMP responsive biosensor that signals through calcium or membrane potential responsive dyes.

Y2 receptor = target: T3, Y2 receptor; test: cell-based or functional assay
human Y5 receptor [3] = target: T4, human Y5 receptor; test: cell-based or functional assay
Y1 receptor [4] = target: T5, Y1 receptor; test: cell-based or functional assay

Molecule | EC50 (human Y5 receptor [1]) [nM] | Receptor potency Y5/Y2 ratio (human Y5 receptor [1]; ratio of Y5 (Assay III) to Y2 (Assay I) receptor potency) | EC50 (Y1 receptor [2]) [nM] | Receptor potency Y1/Y2 ratio (Y1 receptor [2]; ratio of Y1 (Assay II) to Y2 (Assay I) receptor potency) | Receptor potency Y2 (Assay (I), ACTOne) (Y2 receptor) [nM] | Receptor potency Y5 (Assay (III), IPOne) (human Y5 receptor [3]) [nM] | Receptor potency Y1 (Assay (II), ACTOne) (Y1 receptor [4]) [nM]
CC[C@H](C)[C@H](N)C(=O)N[C@@H](CCCNC(=N)N)C(=O)N1CCC[C@H]1C(=O)N[C@@H](CCC(=O)O)C(=O)N[C@@H](C)C(=O)N1CCC[C@H]1C(=O)NCC(=O)N[C@@H](CCC(=O)O)C(=O)N[C@@H](CC(=O)O)C(=O)N[C@@H](C)C(=O)N[C@@H](CO)C(=O)N1CCC[C@H]1C(=O)N[C@@H](CCC(=O)O)C(=O)N[C@@H](CCC(=O)O)C(=O)N[C@@H](CC(C)C)C(=O)N[C@@H](CCC(=O)O)C(=O)N[C@@H](CCCNC(=N)N)C(=O)N[C@@H](Cc1ccc(O)cc1)C(=O)N[C@@H](Cc1ccc(O)cc1)C(=O)N[C@@H](C)C(=O)N[C@@H](CO)C(=O)N[C@@H](CC(C)C)C(=O)N[C@@H](CCCNC(=N)N)C(=O)N[C@@H](Cc1c[nH]cn1)C(=O)N[C@@H](Cc1ccc(O)cc1)C(=O)N[C@@H](CC(C)C)C(=O)N[C@@H](CCC(N)=O)C(=O)N[C@@H](CCCCNC(=O)COCCOCCNC(=O)COCCOCCNC(=O)CC[C@H](NC(=O)CCCCCCCCCCCCCCCCC(=O)O)C(=O)O)C(=O)N[C@H](C(=O)N[C@H](C(=O)N[C@@H](CCCNC(=N)N)C(=O)N[C@@H](CCC(N)=O)C(=O)N[C@@H](CCCNC(=N)N)C(=O)N[C@@H](Cc1ccc(O)cc1)C(N)=O)[C@@H](C)O)C(C)C [SEQ ID NO: 39, N-epsilon30[2-(2-{2-[2-(2-{2-[(S)-4-Carboxy-4-(17-carboxyheptadecanoylamino)butyrylamino]ethoxy}ethoxy)acetylamino]ethoxy}ethoxy)acetyl][Arg4,Glu18,Gln29,Lys30]hPYY(3-36)] | ≥ 1000 | >3.6 | ≥ 1000 | >3.6 |  |  | 
IRPEAPGEDASPEELERYYASLRHYLQK([AEEA-AEEA-γGlu-C18 diacid])VTRQRY-NH2 |  |  |  |  | 274 | ≥ 1000 | ≥ 1000
